Reference: patent publication US9181199B2, “Uracil derivatives and use thereof” (RESprotect GmbH, priority 2008, dated 2015)

Row | melting point [°C] | Structure (SMILES)
1 | 213 to 215 | C[Si](C)(C)C#Cc1cn(Cc2ccccc2)c(=O)[nH]c1=O
2 | 131 | O=c1c(C=CBr)cn(C(c2ccccc2)c2ccccc2)c(=O)n1Cc1ccccc1 [compound A, 1-Benzhydryl-3-benzyl-5-(2-bromovinyl)uracil]
3 | 183 | O=c1[nH]c(=O)n(Cc2ccccc2)cc1C=CBr [compound B, 1-Benzyl-5-(2-bromovinyl)uracil]
4 | 137 | C=CCn1cc(C=CBr)c(=O)[nH]c1=O [compound C, 1-Allyl-5-(2-bromovinyl)uracil]
5 | 162 to 165 | O=c1[nH]c(=O)n(Cc2ccccc2)cc1C#CBr [compound D, 1-Benzyl-5-bromoethynyluracil]
6 | 165 | O=c1[nH]c(=O)n(C(c2ccccc2)c2ccccc2)cc1-c1c[nH]nn1 [compound F, 1-Benzhydryl-5-(1H-1,2,3-triazol-4-yl)uracil]
7 | 261 | N#CC=Cc1cn(C(c2ccccc2)c2ccccc2)c(=O)[nH]c1=O [compound G, 1-Benzhydryl-5-(2-cyanovinyl)uracil]
8 | 154 to 156 | C=CCn1cc(C=C(Br)Br)c(=O)[nH]c1=O [compound H, 1-Allyl-5-(2,2-dibromovinyl)uracil]
9 | 164 to 168 | C=CCn1cc(C#CBr)c(=O)[nH]c1=O [compound I, 1-Allyl-5-bromoethynyluracil]
10 | 205 to 206 | O=c1[nH]c(=O)n(Cc2ccccc2)cc1C=C(Br)Br [compound L, 1-Benzyl-5-(2,2-dibromovinyl)uracil]
11 | 179 to 183 | CC(c1ccccc1)n1cc(C=C(Br)Br)c(=O)[nH]c1=O (stereo not shown) [compound M, 1-(1-Phenylethyl)-5-(2,2-dibromovinyl)uracil]
12 | 163 to 167 | CC(c1ccccc1)n1cc(C#CBr)c(=O)[nH]c1=O (stereo not shown) [compound N, 1-(1-Phenylethyl)-5-bromoethynyluracil]
13 | 190 to 193 | C#Cc1cn(Cc2ccccc2)c(=O)[nH]c1=O [compound R, 1-Benzyl-5-ethynyluracil]
